Data set [1] deals with Laodelphax striatellus. The data set is described as follows: Insecticidal activity against larvae of Laodelphax striatella (small brown planthopper) fed with compound solution dipped rice seedling measured after 5 days by test tube method. The class given is functional. To be noted: 120 h.
The next data set has as its system Myzus persicae. The data set is described as follows: Insecticidal activity against larvae of Myzus persicae (green peach aphid) infested eggplant petiole treated with compound solution measured after 5 days. The class given is functional. To be noted: 120 h.
Data set [2] relates to Laodelphax striatellus. The data set is described as follows: Insecticidal activity against adult Laodelphax striatella (small brown planthopper) at 0.0005 ug topically applied measured after 3 hr. It counts as functional.
The test system of data set [3] is Laodelphax striatellus. The data set is described as follows: Insecticidal activity against adult Laodelphax striatella (small brown planthopper) at 0.0005 ug topically applied measured after 24 hr. It counts as functional.
For data set [4], the system named is Laodelphax striatellus. The data set is described as follows: Insecticidal activity against Laodelphax striatella (small brown planthopper) at 12.5 ppm in presence of triphenyl phosphate. It counts as functional.
Data set [5] relates to Laodelphax striatellus. The data set is described as follows: Insecticidal activity against Laodelphax striatella (small brown planthopper) at 0.0005 ug topically applied measured after 72 hr. It counts as functional.
Data set [6] is described as follows: Displacement of [3H]alpha-bungarotoxin from nicotinic acetylcholine receptor in Apis mellifera (honey bee) head membrane. A general note: In a radioligand displacement assay an active substance lowers the binding of a labelled ligand.
A short description of data set [7]: Acute toxicity in po dosed Mus musculus ICR (mouse) assessed as mortality measured after 14 days. It counts as organism-based. Conditions: in vivo.
The test system of data set [8] is Laodelphax striatellus. The data set is described as follows: Insecticidal activity against Laodelphax striatella (small brown planthopper) at 0.0005 ug topically applied measured after 48 hr. It counts as functional.
Data set [9] relates to Laodelphax striatellus. The data set is described as follows: Insecticidal activity against Laodelphax striatella (small brown planthopper) at 3.1 ppm in presence of piperonyl butoxide. The class given is functional.
Data set [10] has as its system Laodelphax striatellus. The data set is described as follows: Insecticidal activity against Laodelphax striatella (small brown planthopper) at 12.5 ppm. It counts as functional.
The test system of data set [11] is Laodelphax striatellus. The data set is described as follows: Insecticidal activity against Laodelphax striatella (small brown planthopper) at 3.1 ppm in presence of triphenyl phosphate. It counts as functional.
For data set [12], the system named is Laodelphax striatellus. The data set is described as follows: Insecticidal activity against Laodelphax striatella (small brown planthopper) at 3.1 ppm in presence of diethyl maleate. It counts as functional.
The test system of data set [13] is Laodelphax striatellus. The data set is described as follows: Insecticidal activity against Laodelphax striatella (small brown planthopper) at 12.5 ppm in presence of diethyl maleate. It counts as functional.
Data set [14] concerns Laodelphax striatellus. The data set is described as follows: Insecticidal activity against Laodelphax striatella (small brown planthopper) at 3.1 ppm. The class given is functional.
For data set [15], the system named is Laodelphax striatellus. The data set is described as follows: Insecticidal activity against Laodelphax striatella (small brown planthopper) at 12.5 ppm in presence of piperonyl butoxide. It counts as functional.

Values after ≈ are worked out from the molar mass of the structure shown. A value given as a limit tells only on which side of the number the result lay.

For the molecule `CCSC/C(=C1/NCCN1Cc1ccc(Cl)nc1)[N+](=O)[O-]`, the values for the LC50 with Laodelphax striatellus [1] and in the data set with Myzus persicae were 0.41 µg/mL (≈ 1.25 µM) and 0.18 µg/mL (≈ 0.547 µM), respectively.
Turning to `C#CCSC/C(=C1/NCCN1Cc1ccc(Cl)nc1)[N+](=O)[O-]`, the 50% lethal concentration (LC50) (commonly the concentration that kills 50% of the test population) in the data set with Laodelphax striatellus [1] is below 0.05 µg/mL; in the data set on Myzus persicae, 0.22 µg/mL (≈ 0.649 µM).
For `O=[N+]([O-])/C(CSCc1ccccc1)=C1\NCCN1Cc1ccc(Cl)nc1` the same measures were 0.36 µg/mL (≈ 0.921 µM) and 0.11 µg/mL (≈ 0.281 µM).
For `O=C(SC/C(=C1/NCCN1Cc1ccc(Cl)nc1)[N+](=O)[O-])c1ccccc1`, the median lethal concentration (LC50) in the data set with Laodelphax striatellus [1] is 6.3 µg/mL (≈ 15.6 µM); in the data set on Myzus persicae, 1.2 µg/mL (≈ 2.96 µM).
Consider `CC(C)(C)SC/C(=C1/NCCN1Cc1ccc(Cl)nc1)[N+](=O)[O-]`, for which the LC50 stood at 0.43 µg/mL (≈ 1.2 µM) in the data set with Laodelphax striatellus [1] and 0.2 µg/mL (≈ 0.56 µM) in the data set with Myzus persicae.
Take `O=[N+]([O-])/C(CSCc1ccc(Cl)cc1)=C1\NCCN1Cc1ccc(Cl)nc1`: the median lethal concentration (LC50) in the data set with Laodelphax striatellus [1] came to 0.14 µg/mL (≈ 0.329 µM); with Myzus persicae, 0.8 µg/mL (≈ 1.88 µM).
Consider `CC#CCSC/C(=C1/NCCN1Cc1ccc(Cl)nc1)[N+](=O)[O-]`, for which the median lethal concentration (LC50) worked out at 0.3 µg/mL (≈ 0.85 µM) in the data set with Laodelphax striatellus [1] and 0.25 µg/mL (≈ 0.709 µM) in the data set with Myzus persicae.
Consider `C[Si](C)(CSC/C(=C1/NCCN1Cc1ccc(Cl)nc1)[N+](=O)[O-])c1ccccc1`, for which the LC50 in the data set with Laodelphax striatellus [1] amounted to 0.1 µg/mL (≈ 0.223 µM); with Myzus persicae, 0.25 µg/mL (≈ 0.557 µM).
On to `O=[N+]([O-])/C(CSc1ccccc1)=C1\NCCN1Cc1ccc(Cl)nc1`, for which the results for the 50% lethal concentration (LC50) in the data set with Laodelphax striatellus [1] and in the data set with Myzus persicae were 0.11 µg/mL (≈ 0.292 µM) and 0.34 µg/mL (≈ 0.902 µM), respectively.
As to `C=CCSC/C(=C1/NCCN1Cc1ccc(Cl)nc1)[N+](=O)[O-]`, the mortality (usually the percentage killed) in the data set on Laodelphax striatellus [2] turned out to be 0%; with Laodelphax striatellus [3], 30%; in the data set with Laodelphax striatellus [5], 100%; in the data set with Laodelphax striatellus [8], 80%. In addition, the 50% lethal concentration (LC50) is 0.14 µg/mL (≈ 0.411 µM) in the data set with Laodelphax striatellus [1] and 0.1 µg/mL (≈ 0.293 µM) in the data set on Myzus persicae. In addition, the mortality at 12.5 ppm in the data set on Laodelphax striatellus [4] stood at 100%; with Laodelphax striatellus [10], 100%; with Laodelphax striatellus [13], 80%; with Laodelphax striatellus [15] it was 100%. The half-inhibitory concentration (IC50) – broadly, the midpoint of a concentration-inhibition curve – in [6] is 20.4 µM. For the same molecule, the LD50 – broadly, the dose expected to kill half of the subjects tested – at 336 h in data set [7] was above 1000 mg/kg. Also, the mortality at 3.1 ppm in the data set on Laodelphax striatellus [9] is 100%; in the data set with Laodelphax striatellus [11] it was 100%; in the data set with Laodelphax striatellus [12] it was 30%; in the data set on Laodelphax striatellus [14] it was 100%.
For the molecule `CC(SC/C(=C1/NCCN1Cc1ccc(Cl)nc1)[N+](=O)[O-])c1ccc(Cl)cc1` (stereo not drawn), the median lethal concentration (LC50) with Laodelphax striatellus [1] turned out to be 1 µg/mL (≈ 2.28 µM); in the data set on Myzus persicae, 0.2 µg/mL (≈ 0.455 µM).
Regarding `CCOC(=O)CSC/C(=C1/NCCN1Cc1ccc(Cl)nc1)[N+](=O)[O-]`, the values for the LC50 in the data set with Laodelphax striatellus [1] and in the data set with Myzus persicae were 0.3 µg/mL (≈ 0.775 µM) and 0.1 µg/mL (≈ 0.258 µM), respectively.
For `C=C(C)CSC/C(=C1/NCCN1Cc1ccc(Cl)nc1)[N+](=O)[O-]` the same measures were below 0.05 µg/mL and 0.15 µg/mL (≈ 0.423 µM).
For the molecule `O=[N+]([O-])/C=C1\NCCN1Cc1ccc(Cl)nc1`, the mortality in the data set with Laodelphax striatellus [2] stood at 70%; in the data set with Laodelphax striatellus [3], 100%. Besides, the LC50 in the data set with Laodelphax striatellus [1] worked out at 0.3 µg/mL (≈ 1.18 µM); with Myzus persicae, 0.09 µg/mL (≈ 0.353 µM). The IC50 in data set [6] is 0.11 µM. Besides, the LD50 at 336 h in data set [7] is below 30 mg/kg.
In the case of `O=[N+]([O-])/C(CSCCCF)=C1\NCCN1Cc1ccc(Cl)nc1`, the results for the median lethal concentration (LC50) with Laodelphax striatellus [1] and in the data set with Myzus persicae were 0.14 µg/mL (≈ 0.388 µM) and 0.2 µg/mL (≈ 0.554 µM), respectively.
